Test results taken from patent publication US8268823B2, “Medical use of triazine derivatives” (University of Greenwich, priority 2006, dated 2012).
Like-named read-outs stand apart in the source and are kept apart here. Blank lines part the entries; values can stand above or below the compound they belong to.

Columns and labels:
sodium channel = test: veratrine-evoked uptake of [14C]guanidine into rat forebrain synaptosomes ([14C]guanidine flux); format: biochemical; conditions: for Hill (uptake of [14C]guanidine): slope
Procedure: The screening strategy is designed to select compounds with appropriate sodium channel blocking activity and low side effect liability. To this end all compounds are processed through the primary sodium channel assay (veratrine-evoked uptake of [^14C]guanidine into rat forebrain synaptosomes) and IC50 values computed from generated concentration-effect curves.
Synaptosomes (heavy and light mitochondrial fraction containing synaptosomes) were prepared by transferring the forebrain (of known wet weight) to a glass Potter vessel to which 9 volumes ice-cold 0.25M sucrose had been added and homogenising, using a teflon pestle, by 8 ‘up and down strokes’ of a Braun Potter S motor driven homogeniser set to 900 rpm. The resulting homogenate was centrifuged at 1036×g at 4° for 10 min and the supernatant collected. The remaining pellet was resuspended, as above, in fresh ice-cold 0.25M sucrose and the centrifugation step repeated. The supernatant fractions were pooled and centrifuged at 40,000×g (average) at 4° for 15 min and the resulting pellet resuspended in the appropriate assay buffer at a concentration of 20-25 mg wet weight per ml appropriate assay buffer.
Both assays were carried out using 14 ml polypropylene test tubes to which a range of concentrations of the compounds under test were added.
Compounds under test were pre-incubated for 10 min at 30° in incubation buffer (50 mM pH 7.4 HEPES (adjusted to pH 7.4 with Tris base), 130 mM choline chloride, 5.5 mM D-glucose, 0.8 mm MgSO4 and 5 mM KCl) containing 7.5 mg original wet weight of tissue and 100 μg veratrine HCl in a final volume of 0.5 ml. […] A further 2×5 ml of ice-cold wash buffer was added to each tube and the vacuum filtration step repeated. The GF/C glass fibre filters were transferred to minivials and 4 ml Picofluor^40 liquid scintillant added using a Brandel™ deposit/dispense system. Radioactivity was measured using a Beckman Liquid Scintillation Counter.
(§1) Data are presented as mean±sem of number of experiments indicated in brackets.

[1] = target: T1, DiHydroFolate Reductase (DHFR) (Rattus norvegicus, UniProt Q920D2); test: inhibition of binding of [3H]methotrexate to rat liver homogenate supernatant; conditions: for inhibition at 20 µM: assay concentration 20 μM; for IC50: rat liver supernatant; for inhibition at 495 µM: assay concentration 495 μM
T1 construct: from tissue; host or cells: rat liver homogenate supernatant (47,500 x g)
T1 sequence (Q920D2 1-187): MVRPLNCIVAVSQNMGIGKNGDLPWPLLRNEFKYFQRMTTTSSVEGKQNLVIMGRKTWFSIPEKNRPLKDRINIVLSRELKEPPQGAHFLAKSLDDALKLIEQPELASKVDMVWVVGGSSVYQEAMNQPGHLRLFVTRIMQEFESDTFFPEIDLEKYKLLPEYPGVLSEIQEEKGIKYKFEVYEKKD
Procedure: All steps were carried out at 4° (or on ice). Freshly dissected rat liver was dissected into 0.25M ice-cold Sucrose and subsequently homogenised (U-turrax) in 50 mM pH 6.0 phosphate buffer (10 ml/g tissue) containing 15 mM Dithiothreitol. The resulting homogenate was centrifuged @ 47,500×g for 20 min and supernatant (filtered through cotton wool to remove fatty lumps) stored @-80° before use (Rothenberg et al).
The binding reaction was stopped by the addition of 50 μl of a charcoal suspension (consisting of charcoal, Bovine Serum Albumin and Dextran present in a weight ratio of 100:4:1 suspended in 50 mM pH 6.0 phosphate buffer. Samples were vortexed, allowed to stand for 2 minutes and charcoal was precipitated by microcentrifugation @ full speed for 5 min. Aliquots of clear supernatant were transferred to counting vials containing liquid scintillant for measurement of radioactivity using Liquid Scintillation Spectroscopy.
Percentage inhibition values were calculated by comparison to this value.
as §1

[2] = Table 3, rat forebrain synaptosomes, read-out: [14C]guanidine flux Mean (IC50: μM)
[3] = read-out: [3H]methotrexate binding Inhibition (% @ assay conc'n)
[4] = read-out: [3H]methotrexate binding Inhibition (% @ assay conc'n), assay concentration 99 μM
[5] = Table 8, read-out: IC50 (μM) (uptake of [14C]guanidine)

IC50 (sodium channel; [2]): > 100 µM
inhibition at 20 µM [1, 3]: -3%
inhibition at 99 µM [1, 4]: -3%
Structure (SMILES): N=c1nc(N)c(-c2cccc(Cl)c2Cl)nn1CC(N)=O [Example 11]

IC50 (sodium channel; [2]): 4.1 µM
inhibition at 20 µM [1, 3]: -2%
inhibition at 99 µM [1, 4]: -3%
Structure (SMILES): Cc1ccc(Cn2nc(-c3cccc(Cl)c3Cl)c(N)nc2=N)cc1 [Example 12, 5(3)-Amino-6-(2,3-dichlorophenyl)-2,3(2,5)-dihydro-3(5)-imino-2-(4-methyl)phenylmethyl-1,2,4-triazine]

IC50 (sodium channel; [2]): 5.1 µM
inhibition at 10 µM ([1]; read-out: [3H]methotrexate binding Inhibition (% @ assay conc'n), assay concentration 10 μM): -3%
inhibition at 99 µM [1, 4]: -3%
Structure (SMILES): N=c1nc(N)c(-c2cccc(Cl)c2Cl)nn1Cc1ccc(F)cc1 [Example 16, 5(3)-Amino-6-(2,3-dichlorophenyl)-2,3(2,5)-dihydro-3(5)-imino-2-(4-fluoro)phenylmethyl-1,2,4-triazine]

IC50 (sodium channel; [2]): 3.5 µM
[3H]methotrexate binding Inhibition (% @ assay conc'n) ([1]; assay concentration 9 μM): −4%
[3H]methotrexate binding Inhibition (% @ assay conc'n) ([1]; assay concentration 99 μM): −7%
Structure (SMILES): N=c1nc(N)c(-c2cccc(Cl)c2Cl)nn1Cc1cccc(Cl)c1 [Example 20, 5(3)-Amino-6-(2,3-dichlorophenyl)-2,3(2,5)-dihydro-3(5)-imino-2-(3-chloro)phenylmethyl-1,2,4-triazine]

IC50 (sodium channel; [2]): 6.5 µM
[3H]methotrexate binding Inhibition (% @ assay conc'n) ([1]; assay concentration 10 μM): −4%
[3H]methotrexate binding Inhibition (% @ assay conc'n) ([1]; assay concentration 95 μM): −4%
Structure (SMILES): N=c1nc(N)c(-c2cccc(Cl)c2Cl)nn1Cc1ccc(Cl)cc1 [Example 21, 5(3)-Amino-6-(2,3-dichlorophenyl)-2,3(2,5)-dihydro-3(5)-imino-2-(4-chloro)phenylmethyl-1,2,4-triazine]

IC50 (sodium channel; [2]): 4.6 µM
Structure (SMILES): N=c1nc(N)c(-c2cccc(Cl)c2Cl)nn1Cc1ccccc1Cl [Example 22, 5(3)-Amino-6-(2,3-dichlorophenyl)-2,3(2,5)-dihydro-3(5)-imino-2-(2-chloro)phenylmethyl-1,2,4-triazine]

IC50 (sodium channel; [2]): 6.2 µM
Structure (SMILES): N=c1nc(N)c(-c2cccc(Cl)c2Cl)nn1Cc1ccc(C(F)(F)F)cc1 [Example 25, 5(3)-Amino-6-(2,3-dichlorophenyl)-2,3(2,5)-dihydro-3(5)-imino-2-(4-trifluoromethyl)phenylmethyl-1,2,4-triazine]

IC50 (sodium channel; [2]): 5.3 µM
Structure (SMILES): N=c1nc(N)c(-c2cccc(Cl)c2Cl)nn1Cc1cccc(C(F)(F)F)c1F [Example 26, 5(3)-Amino-6-(2,3-dichlorophenyl)-2,3(2,5)-dihydro-3(5)-imino-2-(2-fluoro-3-trifluoromethyl)phenylmethyl-1,2,4-triazine]

IC50 (sodium channel; [2]): 234 µM
Structure (SMILES): N=c1nc(N)c(-c2cccc(Cl)c2Cl)nn1Cc1ccc(C(N)=O)cc1 [Example 27, 4-{[5(3)-Amino-6-(2,3-dichlorophenyl)-2,3-dihydro-3(5)-imino-1,2,4-triazin-2-yl]methyl}benzamide or 5(3)-Amino-6-(2,3-dichlorophenyl)-2,3(2,5)-dihydro-3(5)-imino-2-(3-carboxamido)phenylmethyl-1,2,4-triazine]

IC50 (sodium channel; [2]): 49 µM
Structure (SMILES): N=c1nc(N)c(-c2cccc(Cl)c2Cl)nn1Cc1ccc(CO)cc1 [Example 28, 4-{[5(3)-Amino-6-(2,3-dichlorophenyl)-2,3-dihydro-3(5)-imino-1,2,4-triazin-2-yl]methyl}phenylmethanol or 5(3)-Amino-6-(2,3-dichlorophenyl)-2,3(2,5)-dihydro-3(5)-imino-2-(4-hydroxymethyl)phenylmethyl-1,2,4-triazine]

IC50 (sodium channel; [2]): > 300 µM
IC50 [1]: 442 ± 5.1 µM
Structure (SMILES): Nc1nnc(-c2cccc(F)c2F)c(N)n1 [Example 33, 6-(2,3-difluorophenyl)-1,2,4-triazine-3,5-diamine]

IC50 (sodium channel; [2]): 490 µM
IC50 [1]: 81.3 µM
Structure (SMILES): Nc1nnc(-c2cccc(Cl)c2F)c(N)n1 [Example 35]

IC50 (sodium channel; [2]): 12.9 µM
IC50 [1]: > 300 µM
Structure (SMILES): CC(C)(C)OC(=O)N1CCC(Cn2nc(-c3cccc(Cl)c3Cl)c(N)nc2=N)CC1 [Example 37, 1,1-Dimethylethyl 4-[5(3)-Amino-6-(2,3-dichlorophenyl)-2,3(2,5)-dihydro-3(5)-imino-1,2,4-triazin-2-ylmethyl]piperidine-1-carboxylate or 5(3)-Amino-6-(2,3-dichlorophenyl)-2,3(2,5)-dihydro-3(5)-imino-2-(Bocpiperidin-4-yl)methyl-1,2,4-triazine]

IC50 (sodium channel; [2]): > 500 µM
inhibition at 50 µM ([1]; read-out: [3H]methotrexate binding Inhibition (% @ assay conc'n), assay concentration 50 μM): 82%
Structure (SMILES): Nc1nnc(-c2ccccc2)c(N)n1 [Example 43, 3,5-Diamino-6-phenyl-1,2,4-triazine]

IC50 (sodium channel; [2]): 603 µM
IC50 [1]: 105 µM
Structure (SMILES): Nc1nnc(-c2ccc(Cl)cc2Cl)c(N)n1 [Example 44, 3,5-Diamino-6-(2,4-dichlorophenyl)-1,2,4-triazine]

IC50 (sodium channel; [2]): 87.1 µM
inhibition at 495 µM [1, 3]: -1%
Structure (SMILES): Cn1nc(-c2ccc(Cl)cc2Cl)c(N)nc1=N [Example 45, 5(3)-Amino-6-(2,4-dichlorophenyl)-2,3(2,5)-dihydro-3(5)-imino-2-methyl-1,2,4-triazine methanesulfonate]

IC50 (sodium channel; [2]): 2290 µM
IC50 [1]: 288 µM
Structure (SMILES): Cn1nc(-c2ccccc2)c(N)nc1=N [Example 46, 5(3)-Amino-6-phenyl-2,3(2,5)-dihydro-3(5)-imino-2-methyl-1,2,4-triazine methanesulfonate]

IC50 (sodium channel; [2]): 676 µM
inhibition at 495 µM [1, 3]: 1%
Structure (SMILES): CCn1nc(-c2ccccc2)c(N)nc1=N [Example 47, 5(3)-Amino-6-phenyl-2,3(2,5)-dihydro-3(5)-imino-2-ethyl-1,2,4-triazine methanesulfonate]

IC50 (sodium channel; [2]): 28.2 µM
IC50 [1]: 251 µM
Structure (SMILES): Cn1nc(-c2cc(Cl)ccc2Cl)c(N)nc1=N [Example 48, 5(3)-Amino-6-(2,5-dichlorophenyl)-2,3(2,5)-dihydro-3(5)-imino-2-methyl-1,2,4-triazine methanesulfonate]

IC50 (sodium channel; [2]): 20.9 µM
IC50 [1]: 95 µM
Structure (SMILES): CCn1nc(-c2cc(Cl)ccc2Cl)c(N)nc1=N [Example 49, 5(3)-Amino-6-(2,5-dichlorophenyl)-2,3(2,5)-dihydro-3(5)-imino-2-ethyl-1,2,4-triazine methanesulfonate]

pIC50 (uptake of [14C]guanidine) (sodium channel; Table 8): 5.00 ± 0.08
IC50 (sodium channel; [5]): 10 µM
Structure (SMILES): N=c1nc(N)c(-c2cccc(Cl)c2Cl)nn1CCF [Example 52, 5(3)-Amino-6-(2,3-dichlorophenyl)-2,3(2,5)-dihydro-3(5)-imino-2-(2-fluoroethyl)-1,2,4-triazine methanesulfonate]
Hill (uptake of [14C]guanidine) (sodium channel; Table 8): 0.74

pIC50 (uptake of [14C]guanidine) (sodium channel; Table 8): 4.34 ± 0.16
IC50 (sodium channel; [5]): 45.7 µM
Structure (SMILES): Cn1nc(-c2cc(Cl)cc(Cl)c2)c(N)nc1=N [Example 53, 5(3)-Amino-6-(3,5-dichlorophenyl)-2,3(2,5)-dihydro-3(5)-imino-2-methyl-1,2,4-triazine methanesulfonate]
Hill (uptake of [14C]guanidine) (sodium channel; Table 8): 0.73

pIC50 (uptake of [14C]guanidine) (sodium channel; Table 8): 4.73 ± 0.11
IC50 (sodium channel; [5]): 18.6 µM
Structure (SMILES): CCn1nc(-c2cc(Cl)cc(Cl)c2)c(N)nc1=N [Example 54, 5(3)-Amino-6-(3,5-dichlorophenyl)-2,3(2,5)-dihydro-3(5)-imino-2-ethyl-1,2,4-triazine methanesulfonate]
Hill (uptake of [14C]guanidine) (sodium channel; Table 8): 0.76

pIC50 (uptake of [14C]guanidine) (sodium channel; Table 8): 5.20 ± 0.05
IC50 (sodium channel; [5]): 6.31 µM
Structure (SMILES): N=c1nc(N)c(-c2cc(Cl)cc(Cl)c2Cl)nn1CCF [Example 55, 5(3)-Amino-6-(2,3,5-trichlorophenyl)-2,3(2,5)-dihydro-3(5)-imino-2-(2-fluoroethyl)-1,2,4-triazine methanesulfonate]
Hill (uptake of [14C]guanidine) (sodium channel; Table 8): 0.79

pIC50 (uptake of [14C]guanidine) (sodium channel; Table 8): 2.90 ± 0.20
IC50 (sodium channel; [5]): 1260 µM
Structure (SMILES): N=c1nc(N)c(-c2cc(Cl)cc(Cl)c2Cl)nn1CCC(F)(F)F [Example 56, 5(3)-Amino-6-(2,3,5-trichlorophenyl)-2,3(2,5)-dihydro-3(5)-imino-2-(3,3,3-trifluoropropyl)-1,2,4-triazine methanesulfonate]
Hill (uptake of [14C]guanidine) (sodium channel; Table 8): 0.83
